melting point [°C]	Compound
203 to 210	O=C(Nc1cccc(Br)c1)Nc1ccc(-c2ccc(C(F)(F)F)cc2)cc1-c1nnn[nH]1 [Compound 3-43, N-(3-Bromo-phenyl)-N′-[3-(1H-tetrazol-5-yl)-4′-trifluoromethyl-biphenyl-4-yl]-urea]
245 to 247	O=C(Nc1cc(F)cc(F)c1)Nc1ccc(-c2ccc(C(F)(F)F)cc2)cc1-c1nnn[nH]1 [Compound 3-7, N-(3,5-Difluoro-phenyl)-N′-[3-(1H-tetrazol-5-yl)-4′-trifluoromethyl-biphenyl-4-yl]-urea]
255 to 257	O=C(Nc1cc(F)cc(F)c1)Nc1ccc(-c2cccc(C(F)(F)F)c2)cc1-c1nnn[nH]1 [Compound 3-38, N-(3,5-Difluoro-phenyl)-N′-[3-(1H-tetrazol-5-yl)-3′-trifluoromethyl-biphenyl-4-yl]-urea]
238 to 241	O=C(Nc1cc(F)cc(F)c1)Nc1ccc(-c2ccc(OC(F)(F)F)cc2)cc1-c1nnn[nH]1 [Compound 3-35, N-(3,5-Difluoro-phenyl)-N′-[3-(1H-tetrazol-5-yl)-4′-trifluoromethoxy-biphenyl-4-yl]-urea]
251 to 252	O=C(Nc1ccccc1F)Nc1ccc(-c2ccc(C(F)(F)F)cc2)cc1-c1nnn[nH]1 [Compound 3-24, N-(2-Fluoro-phenyl)-N′-[3-(1H-tetrazol-5-yl)-4′-trifluoromethyl-biphenyl-4-yl]-urea]
230 to 233	O=C(Nc1cc(C(F)(F)F)cc(C(F)(F)F)c1)Nc1ccc(-c2ccc(Cl)cc2)cc1-c1nnn[nH]1 [Compound 3-14, N-(3,5-Bis-trifluoromethyl-phenyl)-N′-[4′-chloro-3-(1H-tetrazol-5-yl)-biphenyl-4-yl]-urea]
254 to 255	O=C(Nc1ccccc1Cl)Nc1ccc(-c2ccc(C(F)(F)F)cc2)cc1-c1nnn[nH]1 [Compound 3-31, N-(2-Chloro-phenyl)-N′-[3-(1H-tetrazol-5-yl)-4′-trifluoromethyl-biphenyl-4-yl]-urea]
253 to 254	O=C(Nc1ccc(F)c(C(F)(F)F)c1)Nc1ccc(-c2ccc(F)cc2)cc1-c1nnn[nH]1 [Compound 3-17, N-(4-Fluoro-3-trifluoromethyl-phenyl)-N′-[4′-fluoro-3-(1H-tetrazol-5-yl)-biphenyl-4-yl]-urea]
251 to 253	O=C(Nc1cc(C(F)(F)F)cc(C(F)(F)F)c1)Nc1ccc(-c2ccc(F)cc2)cc1-c1nnn[nH]1 [Compound 3-16, N-(3,5-Bis-trifluoromethyl-phenyl)-N′-[4′-fluoro-3-(1H-tetrazol-5-yl)-biphenyl-4-yl]-urea]
219 to 221	COc1ccc(-c2ccc(NC(=O)Nc3cc(C(F)(F)F)cc(C(F)(F)F)c3)c(-c3nnn[nH]3)c2)cc1 [Compound 3-42, N-(3,5-Bis-trifluoromethyl-phenyl)-N′-[4′-methoxy-3-(1H-tetrazol-5-yl)-biphenyl-4-yl]-urea]
243 to 245	O=C(Nc1ccc(F)c(C(F)(F)F)c1)Nc1ccc(-c2ccc(Cl)cc2)cc1-c1nnn[nH]1 [Compound 3-15, N-(4-Fluoro-3-trifluoromethyl-phenyl)-N′-[4′-chloro-3-(1H-tetrazol-5-yl)-biphenyl-4-yl]-urea]
246 to 248	O=C(Nc1cc(C(F)(F)F)cc(C(F)(F)F)c1)Nc1ccc(-c2ccc(C(F)(F)F)cc2)cc1-c1nnn[nH]1 [Compound 3-13, N-(3,5-Bis-trifluoromethyl-phenyl)-N′-[3-(1H-tetrazol-5-yl)-4′-trifluoromethyl-biphenyl-4-yl]-urea]
238 to 240	O=C(Nc1cc(C(F)(F)F)cc(C(F)(F)F)c1)Nc1ccc(-c2ccc(OC(F)(F)F)cc2)cc1-c1nnn[nH]1 [Compound 3-37, N-(3,5-Bis-trifluoromethyl-phenyl)-N′-[3-(1H-tetrazol-5-yl)-4′-trifluoromethoxy-biphenyl-4-yl]-urea]
254 to 255	O=C(Nc1ccc(F)c(C(F)(F)F)c1)Nc1ccc(-c2cccc(C(F)(F)F)c2)cc1-c1nnn[nH]1 [Compound 3-45, N-(4-Fluoro-3-trifluoromethyl-phenyl)-N′-[3-(1H-tetrazol-5-yl)-3′-trifluoromethyl-biphenyl-4-yl]-urea]
240 to 243	O=C(Nc1ccc(-c2ccc(C(F)(F)F)cc2)cc1-c1nnn[nH]1)Nc1ccccc1C(F)(F)F [Compound 3-18, N-(2-Trifluoromethyl-phenyl)-N′-[3-(1H-tetrazol-5-yl)-4′-trifluoromethyl-biphenyl-4-yl]-urea]
250 to 252	O=C(Nc1cc(C(F)(F)F)cc(C(F)(F)F)c1)Nc1ccc(-c2cccc(C(F)(F)F)c2)cc1-c1nnn[nH]1 [Compound 3-40, N-(3,5-Bis-trifluoromethyl-phenyl)-N′-[3-(1H-tetrazol-5-yl)-3′-trifluoromethyl-biphenyl-4-yl]-urea]
247 to 249	O=C(Nc1ccc(F)c(C(F)(F)F)c1)Nc1ccc(-c2ccc(C(F)(F)F)cc2)cc1-c1nnn[nH]1 [Compound 3-12, N-(4-Fluoro-3-trifluoromethyl-phenyl)-N′-[3-(1H-tetrazol-5-yl)-4′-trifluoromethyl-biphenyl-4-yl]-urea]
242 to 243	O=C(Nc1ccccc1Br)Nc1ccc(-c2ccc(C(F)(F)F)cc2)cc1-c1nnn[nH]1 [Compound 3-20, N-(2-Bromo-phenyl)-N′-[3-(1H-tetrazol-5-yl)-4′-trifluoromethyl-biphenyl-4-yl]-urea]

Further lines, the compound ahead of its results:

Compound	melting point [°C]
Cc1ccc(-c2ccc(NC(=O)Nc3ccccc3C(F)(F)F)c(-c3nnn[nH]3)c2)cc1 [Compound 3-30, N-(2-Trifluoromethyl-phenyl)-N′-[4′-methyl-3-(1H-tetrazol-5-yl)-biphenyl-4-yl]-urea]	259 to 261
O=C(Nc1cc(Cl)cc(Cl)c1)Nc1ccc(-c2ccc(OC(F)(F)F)cc2)cc1-c1nnn[nH]1 [Compound 3-36, N-(3,5-Dichloro-phenyl)-N′-[3-(1H-tetrazol-5-yl)-4′-trifluoromethoxy-biphenyl-4-yl]-urea]	224 to 225
O=C(Nc1ccc(-c2ccc(Cl)cc2)cc1-c1nnn[nH]1)Nc1ccccc1C(F)(F)F [Compound 3-21, N-(2-Trifluoromethyl-phenyl)-N′-[4′-chloro-3-(1H-tetrazol-5-yl)-biphenyl-4-yl]-urea]	290 to 292
O=C(Nc1cc(F)cc(F)c1)Nc1ccc(-c2ccc(Cl)cc2)cc1-c1nnn[nH]1 [Compound 3-5, N-(3,5-Difluoro-phenyl)-N′-[4′-chloro-3-(1H-tetrazol-5-yl)-biphenyl-4-yl]-urea]	250 to 251
O=C(Nc1ccc(-c2ccc(F)cc2)cc1-c1nnn[nH]1)Nc1ccccc1C(F)(F)F [Compound 3-19, N-(2-Trifluoromethyl-phenyl)-N′-[4′-fluoro-3-(1H-tetrazol-5-yl)-biphenyl-4-yl]-urea]	256 to 258
Cc1ccc(-c2ccc(NC(=O)Nc3ccccc3F)c(-c3nnn[nH]3)c2)cc1 [Compound 3-27, N-(2-Fluoro-phenyl)-N′-[4′-methyl-3-(1H-tetrazol-5-yl)-biphenyl-4-yl]-urea]	260 to 262
Cc1ccc(-c2ccc(NC(=O)Nc3ccccc3Cl)c(-c3nnn[nH]3)c2)cc1 [Compound 3-28, N-(2-Chloro-phenyl)-N′-[4′-methyl-3-(1H-tetrazol-5-yl)-biphenyl-4-yl]-urea]	261 to 263
O=C(Nc1ccccc1F)Nc1ccc(-c2ccc(Cl)cc2)cc1-c1nnn[nH]1 [Compound 3-25, N-(2-Fluoro-phenyl)-N′-[4′-chloro-3-(1H-tetrazol-5-yl)-biphenyl-4-yl]-urea]	257 to 259
Cc1ccc(-c2ccc(NC(=O)Nc3ccccc3Br)c(-c3nnn[nH]3)c2)cc1 [Compound 3-29, N-(2-Bromo-phenyl)-N′-[4′-methyl-3-(1H-tetrazol-5-yl)-biphenyl-4-yl]-urea]	255 to 257
O=C(Nc1ccccc1Br)Nc1ccc(-c2ccc(Cl)cc2)cc1-c1nnn[nH]1 [Compound 3-22, N-(2-Bromo-phenyl)-N′-[4′-chloro-3-(1H-tetrazol-5-yl)-biphenyl-4-yl]-urea]	255 to 256
COc1ccc(-c2ccc(NC(=O)Nc3cc(F)cc(F)c3)c(-c3nnn[nH]3)c2)cc1 [Compound 3-41, N-(3,5-Difluoro-phenyl)-N′-[4′-methoxy-3-(1H-tetrazol-5-yl)-biphenyl-4-yl]-urea]	129 to 133
O=C(Nc1ccc(Cl)c(C(F)(F)F)c1)Nc1ccc(-c2ccc(Cl)cc2)cc1-c1nnn[nH]1 [Compound 3-3, N-(4-Chloro-3-trifluoromethyl-phenyl)-N′-[4′-chloro-3-(1H-tetrazol-5-yl)-biphenyl-4-yl]-urea]	242 to 243
O=C(Nc1cc(F)cc(F)c1)Nc1ccc(-c2ccc(F)cc2)c(-c2nnn[nH]2)c1 [Compound 3-11, N-(3,5-Difluoro-phenyl)-N′-[4′-fluoro-2-(1H-tetrazol-5-yl)-biphenyl-4-yl]-urea]	255 to 256
COc1ccc(-c2ccc(NC(=O)Nc3cc(Cl)cc(Cl)c3)c(-c3nnn[nH]3)c2)cc1 [Compound 3-34, N-(3,5-Dichloro-phenyl)-N′-[4′-methoxy-3-(1H-tetrazol-5-yl)-biphenyl-4-yl]-urea]	200 to 201
O=C(Nc1ccccc1Cl)Nc1ccc(-c2ccc(Cl)cc2)cc1-c1nnn[nH]1 [Compound 3-32, N-(2-Chloro-phenyl)-N′-[4′-chloro-3-(1H-tetrazol-5-yl)-biphenyl-4-yl]-urea]	255 to 257
O=C(Nc1ccccc1Br)Nc1ccc(-c2ccc(F)cc2)cc1-c1nnn[nH]1 [Compound 3-23, N-(2-Bromo-phenyl)-N′-[4′-fluoro-3-(1H-tetrazol-5-yl)-biphenyl-4-yl]-urea]	256 to 258
O=C(Nc1ccccc1Cl)Nc1ccc(-c2ccc(F)cc2)cc1-c1nnn[nH]1 [Compound 3-33, N-(2-Chloro-phenyl)-N′-[4′-fluoro-3-(1H-tetrazol-5-yl)-biphenyl-4-yl]-urea]	255 to 257
O=C(Nc1cc(Cl)cc(Cl)c1)Nc1ccc(-c2ccc(F)cc2)cc1-c1nnn[nH]1 [Compound 3-10, N-(3,5-Dichloro-phenyl)-N′-[4′-fluoro-3-(1H-tetrazol-5-yl)-biphenyl-4-yl]-urea]	241 to 243

— US20070293553A1, “Diphenylurea Derivatives Useful As Potassium Channel Activators” (priority 2004, published 2007)
